Laboratory results reported in US8791099B2, “Transition metal complexes of corroles for preventing cardiovascular diseases or disorders” (Technion Research and Development Foundation Ltd., priority 2007, dated 2014).
Marks after values point to notes of the source that are not given here.

Legend:
[1] = tested on: mouse peritoneal macrophages (MPM); assay: Cholesterol efflux from MPM of treated E^0 mice; conditions: drinking water 0.04 mM (8 mg/Kg/day), 14 weeks
Description: Mouse peritoneal macrophages were incubated with [^3H]-labeled cholesterol for 1 h at 37° C. followed by cell wash in ice-cold PBS (3×) and further incubation in the absence or presence of 100 μg of human HDL protein/ml for 3 h at 37° C. Cellular and medium [^3H]-labels were quantitated and HDL-mediated cholesterol efflux was calculated as the ratio of [^3H]-label in the medium/[^3H]-label in the medium+[^3H]-label in cells.

[2] = Nitration of L-tyrosine by peroxynitrite; conditions: pH 7.4, T=25°C, yield relative to [PN]0; PN alone 11%
Description: e) Nitration of L-tyrosine: Peroxynitrite (0.44 μmol) was reacted with 0.16 μmol of L-tyrosine in 2 mL phosphate buffer solution, pH 7.4 at T=24° C. for 5 min. The concentration of such formed nitrotyrosine was estimated by recording the 438 nm absorbance (ε=4200 M^−1cm^−1) of basified solutions (via the addition of 0.2 ml of 7.8 M NaOH).
(§1) These particular molecules were specifically chosen because they represent targets of hydroxyl radical, nitrogen dioxide, and of oxygen transfer reagents. In addition, their reaction products are easily identified and quantified by established methods.

[3] = Nitration of fluorescein by peroxynitrite; conditions: pH 7.4, T=25°C, relative to [fluorescein]0; PN alone 30%
Description: The changes in fluorescein absorbance were measured on the UV/vis spectrophotometer. The yield of nitration was determined by converting absorbance to changes in concentration of fluorescein and nitrated fluorescein, using pre-determined extinction coefficients. For increased accuracy, the three wavelengths in which the largest changes in absorbance occur were used. The yields were calculated based on the initial substrate concentration.
as §1

[4] = tested on: mouse peritoneal macrophages (MPM); assay: Cholesterol synthesis by MPM of treated E^0 mice; conditions: drinking water 0.04 mM (8 mg/Kg/day), 14 weeks
Description: Cellular cholesterol biosynthesis was assayed after incubation of macrophages (3×10^6 well^−1) overnight with DMEM containing 2% BSA followed by additional 3 h of incubation at 37° C. with [^3H]-acetate (3.3 μCi/ml). Cellular lipids were extracted with hexane:isopropanol (3:2, v:v), and the upper phase was dried under nitrogen. The lipids were then separated by TLC using an eluent of hexane:ether:acetic acid (130:30:1.5, v:v:v). Unesterified cholesterol spots were visualized by iodine vapor (by using standard for identification) and counted with β-counter.

[5] = Oxidation of deoxyribose to malonyldialdehyde by peroxynitrite; conditions: pH 7.4, T=25°C, yield relative to [PN]0; PN alone 1.7%
Description: 1 mL of 2.8% trichloroacetic acid and 1 mL of 1% thiobarbituric acid in 0.1 M NaOH adjusted to pH 3.5 were sequentially added to 1 mL samples and the absorbance spectra at 532 nm due to the absorbance maximum of the MDA-thiobarbiturate product were recorded as a function of time (0-22 hr) at 24° C.
as §1

[6] = Decomposition of peroxynitrite, comparison with punicalagin; conditions: for Minimal concentration required for reducing the half lifetime of peroxynitrite by 50%: calculated from rate constants
Description: For initial assessment of possible superiority of the metallocorroles relative to natural antioxidants, we have determined the effect of excess (45-135 μM) punicalagin—the active polyphenolic hydrolysable tannin ingredient of pomegranate juice (Tzulker et al., 2007), on decomposition of peroxynitrite (40 μM).

[7] = tested on: Apolipoprotein E deficient mice (E^0 mice); assay: Serum total cholesterol in E^0 mice; assay type: in vivo; conditions: drinking water 0.04 mM (0.2 mg per mouse per day), 10 weeks
Description: a) For atherosclerosis evaluation: At an age of about 10 weeks, 24 E^0 mice were randomly divided into 4 groups of 6 mice each.
The sacrificed mice were also examined with regard to other factors relevant to the development of atherosclerosis.

[8] = tested on: J-774 macrophages; assay: Cholesterol efflux from J-774 macrophages by serum of treated E^0 mice; conditions: drinking water 0.04 mM (8 mg/Kg/day), 14 weeks
[9] = Oxidation of tetramethylene sulfoxide to sulfolane by peroxynitrite
Description: The sulfolane was extracted into diethyl ether after 10 min of stirring and quantified by GC analysis. The same experiment was done at pH 12.7, with a reaction time of 4 hr.
as §1

[10] = pH 7.4, T=25°C, yield relative to [PN]0, PN alone 3.14%
[11] = pH 12.7, yield relative to [PN]0, PN alone 83%

Row | Structure (SMILES) | Decrease in cholesterol efflux from the E^0 MPM [1] [%] | Yield of L-nitrotyrosine from L-tyrosine [2] [%] | Yield of nitrofluorescein from fluorescein [3] | Reduction of cholesterol synthesis by MPMs [4] [%] | Yield of malonyldialdehyde from deoxyribose [5] [%] | Times more effective than punicalagin in peroxynitrite decomposition [6] [times] | Minimal concentration required for reducing the half lifetime of peroxynitrite by 50% [6] [mol %] | Total serum cholesterol lower than in the control group [7] [%] | Increase in serum-mediated cholesterol efflux from J-774 macrophages [8] [%] | Yield of sulfolane from tetramethylenesulfoxide [9, 10] | Yield of sulfolane from tetramethylenesulfoxide [9, 11]
1 | O=S(=O)(O)c1cc2[n]3c1C(c1c(F)c(F)c(F)c(F)c1F)=C1C=CC4=[N+]1[Fe-]31[n]3c(cc(S(=O)(=O)O)c3-2)C(c2c(F)c(F)c(F)c(F)c2F)=c2ccc([n]21)=C4c1c(F)c(F)c(F)c(F)c1F (stereo not shown) [1-Fe, 5,10,15-tris(pentafluorophenyl)-2,17-bis(sulfonic acid)-corrolato iron(III)] | 20 | 11 | 4%^(a) | 76 | 0 | 5000 | 0.05 | 40 | 7 | 0.1%^ | 0.4%^(b)
2 | O=S(=O)(O)c1cc2[n]3c1C(c1c(F)c(F)c(F)c(F)c1F)=C1C=CC4=[N+]1[Mn-]31[n]3c(cc(S(=O)(=O)O)c3-2)C(c2c(F)c(F)c(F)c(F)c2F)=c2ccc([n]21)=C4c1c(F)c(F)c(F)c(F)c1F (stereo not shown) [1-Mn, 5,10,15-tris(pentafluorophenyl)-2,17-bis(sulfonic acid)-corrolato manganese(III)] |  | 0 | 0% |  | 0 | 100 | 2.5 | 26 |  | 0.18% | 0.6%^(b)
